Among the data in PubChem BioAssay (NCI) are TGI and GI50 values, retold here.

Some test systems named below: A549 NSCLC; HCC-2998 colon; HCT-15 colon; IGROV1 ovarian; MOLT-4 leukemia; NCI-H460 lung; NCI-H522 lung; SF-268 CNS; SK-OV-3 ovarian.
Assay in all cases: growth of human tumour cells (NCI), 48 h

Several values for one entry are separate records, joined by “and”; a condition that tells them apart may be missing. Equal values may be shown once.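 A five-concentration, 48-hour dose response in 96-well plates underlies each endpoint, interpolated linearly between surrounding concentrations. GI50 = concentration required for 50% inhibition of growth. At the TGI there is no net growth.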

Turning to `O=C(O)CSc1n[nH]c(/C=C/c2ccccc2)n1`, the TGI with A549 NSCLC, with HCC-2998 colon, in the experiment with HCT-15 colon, in the experiment on IGROV1 ovarian, in the experiment on MOLT-4 leukemia and in the experiment on NCI-H460 lung was more than 100 µM in each case. Besides, the TGI in the experiment on NCI-H522 lung, in the experiment with SF-268 CNS and in the experiment on SK-OV-3 ovarian was more than 100 µM each time.

In the case of `OCC(O)CC[CH2][Sn]([c]1ccccc1)([c]1ccccc1)[c]1ccccc1` (configuration not stated), the GI50 was 10.7 µM in the experiment with A549 NSCLC; 18.2 µM in the experiment on HCC-2998 colon; 12.7 µM in the experiment with HCT-15 colon; 16.3 µM in the experiment with IGROV1 ovarian; 15.4 µM with NCI-H460 lung; 4.64 µM in the experiment on NCI-H522 lung. Besides, the GI50 with SK-OV-3 ovarian was 19.7 µM. Moreover, the TGI is 22.6 µM in the experiment with A549 NSCLC; 34.5 µM in the experiment with HCC-2998 colon; 26.8 µM in the experiment on HCT-15 colon; 33.7 µM with IGROV1 ovarian; 31.6 µM with NCI-H460 lung; 13.7 µM in the experiment with NCI-H522 lung. Besides, the TGI in the experiment with SK-OV-3 ovarian was determined as 34.1 µM.

On to `COC(=O)N1[C@H]2Cc3c(OC)c(C)c(OC)c(OC)c3[C@@H]1/C(=C\c1cc(OC)c(OC)c(C)c1OC)N(Cc1ccccc1)C2=O`, for which the TGI in the experiment with A549 NSCLC is more than 100 µM; in the experiment with HCC-2998 colon it was more than 100 µM; in the experiment on IGROV1 ovarian, more than 100 µM; in the experiment on MOLT-4 leukemia, 75.2 µM; in the experiment with NCI-H460 lung it was more than 100 µM; with NCI-H522 lung, 37.2 µM. Further, the TGI in the experiment with SF-268 CNS and in the experiment with SK-OV-3 ovarian was more than 100 µM each time.

Turning to `COc1cc(OC)cc(N2CCC(c3c(N)nc(N)nc3Cl)CC2)c1`, the TGI in the experiment on A549 NSCLC, in the experiment on HCC-2998 colon, in the experiment with HCT-15 colon, in the experiment with IGROV1 ovarian, in the experiment on MOLT-4 leukemia and in the experiment with NCI-H460 lung was more than 100 µM throughout. Besides, the TGI in the experiment on NCI-H522 lung, in the experiment with SF-268 CNS and in the experiment on SK-OV-3 ovarian was more than 100 µM each time.

As to `CCCCOC1CC2(c3ccc(OC)cc3)C(=O)c3ccccc3N2O1` (configuration not stated), the TGI in the experiment with A549 NSCLC is more than 100 µM; in the experiment with HCT-15 colon it was more than 10 µM; with IGROV1 ovarian, more than 10 µM; in the experiment on MOLT-4 leukemia, 61.5 µM; with NCI-H460 lung it was more than 10 µM; in the experiment on NCI-H522 lung, 81.2 µM. The TGI in the experiment with SF-268 CNS and with SK-OV-3 ovarian was more than 100 µM each time.

In the case of `CC(NC(=O)c1ccccc1)C(=O)N(Cc1ccccc1)Cc1ccccc1` (configuration not stated), the TGI is more than 100 µM with A549 NSCLC; more than 100 µM with HCC-2998 colon; 88.9 µM in the experiment on HCT-15 colon; more than 100 µM in the experiment on IGROV1 ovarian; 35.6 µM in the experiment with MOLT-4 leukemia; 65.4 µM with NCI-H460 lung. Further, the TGI in the experiment with NCI-H522 lung was 65.2 µM; in the experiment with SF-268 CNS, more than 100 µM; in the experiment with SK-OV-3 ovarian, more than 100 µM.

On to `O=c1cc2n(c(=O)[nH]1)C1OC(C(O)C1O)[C@@H]2CCO` (some centres not stated), for which the TGI in the experiment on A549 NSCLC, in the experiment with IGROV1 ovarian, in the experiment with MOLT-4 leukemia, in the experiment with NCI-H460 lung, in the experiment with NCI-H522 lung and with SF-268 CNS was more than 100 µM in each case. For the same molecule, the TGI with SK-OV-3 ovarian was more than 100 µM.

Consider `CC(=O)[CH-]C(=O)c1ccccc1.CC(=O)[CH-]C(=O)c1ccccc1.[Nd+3].[OH-].[OH3+]`, for which the GI50 in the experiment with A549 NSCLC, with HCC-2998 colon, with HCT-15 colon, in the experiment with IGROV1 ovarian, in the experiment with MOLT-4 leukemia and in the experiment on NCI-H460 lung was more than 100 µM throughout. Further, the GI50 in the experiment with NCI-H522 lung, in the experiment on SF-268 CNS and in the experiment with SK-OV-3 ovarian was more than 100 µM in each case. In addition, the TGI with A549 NSCLC, in the experiment with HCC-2998 colon, in the experiment with HCT-15 colon, in the experiment with IGROV1 ovarian, in the experiment on MOLT-4 leukemia and in the experiment with NCI-H460 lung was more than 100 µM each time. In addition, the TGI in the experiment on NCI-H522 lung, in the experiment on SF-268 CNS and with SK-OV-3 ovarian was more than 100 µM each time.

On to `COc1ccc(CNc2cc(OC)cc(OC)c2)cc1`, for which the TGI in the experiment on A549 NSCLC, with HCC-2998 colon, in the experiment on HCT-15 colon, in the experiment on IGROV1 ovarian, in the experiment on MOLT-4 leukemia and with NCI-H460 lung was more than 100 µM each time. Also, the TGI in the experiment with NCI-H522 lung, with SF-268 CNS and in the experiment on SK-OV-3 ovarian was more than 100 µM each time. Also, the GI50 in the experiment with HCT-15 colon was > 100 µM and 46.6 µM.

Take `CN(C)CCC1(C2=CCCC2)CC/C(=C\c2ccc3c(c2)OCO3)C1=O` (configuration not stated): the TGI with A549 NSCLC was found to be 31.8 µM; with HCC-2998 colon, 29.6 µM; in the experiment on HCT-15 colon it was 29 µM; in the experiment on MOLT-4 leukemia it was 31.4 µM; with NCI-H460 lung, 36.2 µM; with SF-268 CNS it was 28.1 µM.

As for `CC(C)(C)c1nc2c(o1)C(=Nc1ccccc1)c1ccccc1C2=O`, the TGI is 23.5 µM with A549 NSCLC; 42.6 µM in the experiment on HCC-2998 colon; 27.9 µM with HCT-15 colon; 33.6 µM with IGROV1 ovarian; more than 100 µM in the experiment with MOLT-4 leukemia; 19.9 µM with NCI-H460 lung. The TGI in the experiment with NCI-H522 lung stood at 10.2 µM; in the experiment with SF-268 CNS it was 21 µM; with SK-OV-3 ovarian it was 63.4 µM.

For `CCc1nc2c(O)ccc(O)c2nc1C`, the TGI is 44.5 µM in the experiment on A549 NSCLC; more than 54.9 µM with HCC-2998 colon; 30.6 µM in the experiment on HCT-15 colon; 33.1 µM with IGROV1 ovarian; more than 39.5 µM in the experiment on MOLT-4 leukemia; 36.1 µM in the experiment with NCI-H460 lung. The TGI with NCI-H522 lung is 6.47 µM; with SF-268 CNS, 34.2 µM; with SK-OV-3 ovarian, 34.2 µM.

Regarding `COC(=O)OCC1OC(N2C(=O)NC(=O)C(I)C2N=[N+]=[N-])CC1OC(=O)OC` (configuration not stated), the TGI with A549 NSCLC, in the experiment on HCC-2998 colon, with HCT-15 colon, in the experiment with IGROV1 ovarian, in the experiment with MOLT-4 leukemia and in the experiment with NCI-H460 lung was more than 100 µM each time. In addition, the TGI in the experiment on NCI-H522 lung, in the experiment on SF-268 CNS and in the experiment with SK-OV-3 ovarian was more than 100 µM each time.

Regarding `CN(C)CCNC(=O)c1ccc2ccc3cccnc3c2n1`, the TGI is more than 52.9 µM in the experiment with A549 NSCLC; 25.4 µM with HCC-2998 colon; 63.5 µM in the experiment on HCT-15 colon; more than 100 µM with IGROV1 ovarian; 32.3 µM with MOLT-4 leukemia; 35.9 µM in the experiment on NCI-H460 lung. Moreover, the results for the TGI with NCI-H522 lung, in the experiment on SF-268 CNS and in the experiment with SK-OV-3 ovarian were 25.5 µM, 54.5 µM and more than 100 µM, respectively.

With `COc1nc(OC)c2c(=O)oc(-c3ccccc3)cc2n1`, the TGI in the experiment on A549 NSCLC, with HCC-2998 colon, in the experiment on HCT-15 colon, in the experiment with IGROV1 ovarian, in the experiment on MOLT-4 leukemia and in the experiment on NCI-H522 lung was more than 100 µM each time. Also, the TGI with SF-268 CNS and with SK-OV-3 ovarian was more than 100 µM in each case.

Regarding `O=C(NC1CCCCC1)c1c(O)[nH]c(=S)[nH]c1=O`, the TGI with A549 NSCLC, with HCT-15 colon, with IGROV1 ovarian, in the experiment on MOLT-4 leukemia, with NCI-H460 lung and with NCI-H522 lung was more than 100 µM throughout. In addition, the TGI in the experiment with SF-268 CNS and in the experiment with SK-OV-3 ovarian was more than 100 µM throughout.

For `CCOC(C)OCC#CCCBr` (configuration not stated), the TGI in the experiment on A549 NSCLC, in the experiment with HCC-2998 colon, in the experiment on HCT-15 colon, with IGROV1 ovarian, in the experiment with MOLT-4 leukemia and with NCI-H460 lung was more than 100 µM throughout. The TGI in the experiment with SF-268 CNS and with SK-OV-3 ovarian was more than 100 µM each time.

Consider `CS(=O)(=O)C1S(=O)(=O)OCCOS1(=O)=O`, for which the TGI with A549 NSCLC, in the experiment on HCC-2998 colon, in the experiment on IGROV1 ovarian, in the experiment on MOLT-4 leukemia, with NCI-H460 lung and in the experiment on NCI-H522 lung was more than 100 µM each time. The TGI in the experiment with SF-268 CNS and in the experiment with SK-OV-3 ovarian was more than 100 µM each time.

For `O=CC1=CCCC2(C1)OCCO2`, the TGI in the experiment with A549 NSCLC, in the experiment on HCC-2998 colon, with HCT-15 colon, in the experiment on IGROV1 ovarian, in the experiment on NCI-H460 lung and in the experiment with NCI-H522 lung was more than 100 µM in each case. For the same molecule, the TGI in the experiment with SF-268 CNS and with SK-OV-3 ovarian was more than 100 µM throughout.

For `O=c1/c(=C/c2cccc3ccccc23)sc2nc3ccccc3n12`, the TGI in the experiment on A549 NSCLC, in the experiment with HCC-2998 colon, in the experiment on HCT-15 colon, in the experiment with IGROV1 ovarian, in the experiment on NCI-H460 lung and in the experiment with NCI-H522 lung was more than 100 µM each time. The same molecule had a TGI with SF-268 CNS of more than 100 µM.

Consider `[Cu+2].[Cu+2].[O-]c1ccccc1C=Nc1ccccc1[O-].[O-]c1ccccc1C=Nc1ccccc1[O-]`, for which the GI50 was 7.56 µM in the experiment on A549 NSCLC; 10.3 µM in the experiment with HCC-2998 colon; 7.25 µM with HCT-15 colon; 3.33 µM with IGROV1 ovarian; 2.99 µM in the experiment with MOLT-4 leukemia; 2.39 µM in the experiment on NCI-H522 lung. The GI50 was 11.8 µM in the experiment on SF-268 CNS and 25.5 µM with SK-OV-3 ovarian. Further, the TGI in the experiment with A549 NSCLC amounted to 27.8 µM; in the experiment with HCC-2998 colon, 22.4 µM; with HCT-15 colon, 21.5 µM; in the experiment on IGROV1 ovarian, 12.2 µM; in the experiment on MOLT-4 leukemia, 9.97 µM; in the experiment with NCI-H522 lung, 6.24 µM. In addition, the TGI is 24.2 µM in the experiment on SF-268 CNS and 40.4 µM in the experiment on SK-OV-3 ovarian.
